The source of these data is PubChem BioAssay AID788 (SRMLSC, 2007).

For test [1], the system named is S. cerevisiae wild-type background strain growth inhibition. As to the kind of experiment: vps1Δ apl2Δ double mutant yeast growth inhibitors – S. cerevisiae, background strain comparison, post-Golgi transport modulator project, dose response (AID 788). The conditions noted are these: S. cerevisiae vps1Δ apl2Δ growth inhibition, dose response; measured here: wild-type background strain growth.

Test [2] relates to S. cerevisiae vps1Δ apl2Δ growth inhibition, dose response. Described as above.

The source made the active and inactive calls. No rule for the calls is given here.

Consider `N=c1nc(N)nc2n1NC(c1ccc(F)cc1)=CS2`, for which the IC50 in test [1] was more than 10 µM; in test [2], > 10 µM (inactive).
Consider `Fc1ccc(Cn2nnc(-c3ccc(CN4CCOCC4)cc3)n2)cc1`, for which the IC50 in test [1] was more than 10 µM; in test [2], 5.15 µM.
As for `CN1C(=O)/C(=C/c2cccn2-c2ccc3ccccc3c2)C(=O)NC1=S`, the figures for the IC50 in test [1] and in test [2] were 6.58 µM and 10.4 µM (inactive), respectively.
For the compound `O=C(NCCSCc1ccc(Cl)cc1Cl)c1ccc(CN2CCOCC2)cc1`, the IC50 in test [1] was more than 10 µM; in test [2], 13.5 µM.
Taken in the same sequence, the figures for `Cc1ccc(SC(C)C(=O)Nc2ncn[nH]2)cc1` (stereo not drawn) were more than 10 µM and > 10 µM (inactive).
Taken in the same sequence, the figures for `O=[N+]([O-])c1cc(C(F)(F)F)ccc1N/N=C/c1cc2ccccc2nc1Cl` were more than 10 µM and > 10 µM (inactive).
The like results for `CCOC(=O)c1cccnc1SCc1cc(=O)n2ccccc2n1` were, in that order, more than 10 µM and > 10 µM (inactive).
In the case of `O=C(CCl)c1ccc(Cc2ncc(C(F)(F)F)cc2Cl)s1`, the IC50 in test [1] is 8.68 µM; in test [2], 16.2 µM (inactive).
Taken in the same sequence, the figures for `COc1ccc(NC(=O)N(C2CCCCC2)C(C)c2cccnc2)c(OC)c1` (stereo not drawn) were 16.7 µM and 9.51 µM.
The like results for `COCCCn1c2nc3ccccc3nc2c2c(=O)n(-c3ccccc3OC)cnc21` were, in that order, more than 10 µM and > 10 µM (inactive).
Take `O=C(NCc1ccc2c(c1)OCO2)C1CCCN1C(=O)Nc1ccccc1` (stereo not drawn): the IC50 in test [1] is more than 10 µM; in test [2] it was > 10 µM (inactive).
Consider `CCOC(=O)c1ccc(NC(=O)c2cn(-c3ccccc3)nc2-c2ccncc2)cc1`, for which the IC50 is 11.5 µM in test [1] and 19.1 µM (inactive) in test [2].
`Cc1cccc(OCC(=O)O/N=C(\N)Cc2ccc(Cl)cc2)c1`: the IC50 was 10.4 µM in test [1] and > 10 µM (inactive) in test [2].
Taken in the same sequence, the figures for `CC1CCCCC1NC(=O)CSc1nnnn1-c1ccccc1` (stereo not drawn) were more than 10 µM and > 10 µM (inactive).
On to `O=C1OCC(CO)(CO)N=C1NNc1ccc(Cl)c(Cl)c1`, for which the values for the IC50 in test [1] and in test [2] were 3.35 µM and 2.85 µM, respectively.
Turning to `O=C(COc1ccc(Cl)cc1Cl)NCCCN1CCOCC1`, the IC50 in test [1] was more than 10 µM; in test [2], 20.8 µM.
`COc1ccccc1N1CCN(Cc2ccccc2F)CC1`: the IC50 is more than 10 µM in test [1] and > 10 µM (inactive) in test [2].
The like results for `COc1ccc(C(=O)Nc2ccc(Cl)cc2C(=O)N2CCCC(C)C2)cc1` (stereo not drawn) were, in that order, more than 10 µM and > 10 µM (inactive).
Taken in the same sequence, the figures for `Cc1nn(Cc2cccc(C(=O)NC(C)c3ccc(C(C)(C)C)cc3)c2)c(C)c1[N+](=O)[O-]` (stereo not drawn) were more than 10 µM and > 10 µM (inactive).
Taken in the same sequence, the figures for `O=c1cccc2n1CC1CC2CN(S(=O)(=O)c2ccccc2)C1` (stereo not drawn) were more than 10 µM and > 10 µM (inactive).
As for `O=S(=O)(c1ccc(Cl)cc1)N1CCN(C2CCN(Cc3ccccc3)CC2)CC1`, the IC50 was more than 10 µM in test [1] and 5.15 µM in test [2].
For `Cc1ccc(C2(C(F)(F)F)N=C3Sc4cc(C)cc(C)c4N3C(=O)N2)cc1` (stereo not drawn), the IC50 was 1.08 µM in test [1] and 1.5 µM (inactive) in test [2].
Regarding `Cc1ccc(C(=O)OCn2ncc(Cl)c(Cl)c2=O)cc1`, the results for the IC50 in test [1] and in test [2] were 4.62 µM and 4.22 µM, respectively.
`Cc1cc(N2C(=O)C3CCCN3C2c2sccc2C)no1` (stereo not drawn): the IC50 in test [1] was more than 10 µM; in test [2], > 10 µM (inactive).
Taken in the same sequence, the figures for `COc1ccc(-c2cc(N)n(S(=O)(=O)c3c(F)c(F)c(F)c(F)c3F)n2)cc1OC` were 1.08 µM and 2.5 µM (inactive).
Taken in the same sequence, the figures for `CCN1CCN(c2c(Cl)cccc2NC(=O)c2ccc(Br)o2)CC1` were more than 10 µM and > 10 µM (inactive).
Taken in the same sequence, the figures for `COc1ccc(Nc2nc(N)nc(CSc3nnc(N)s3)n2)cc1` were more than 10 µM and > 10 µM (inactive).
As to `CCc1cc(=O)oc2cc(C)c(CN3CCCC(C)C3)c(O)c12` (stereo not drawn), the IC50 in test [1] was more than 10 µM; in test [2] it was > 10 µM (inactive).
Taken in the same sequence, the figures for `CCOC(=O)C1CCN(Cc2cnc(Oc3ccc(Cl)cc3C)s2)CC1` were more than 10 µM and 26 µM.
Taken in the same sequence, the figures for `Cc1cccc(-c2c3c(=O)n(C)c(=O)n(C)c3cn2C2CCCCC2)c1` were more than 10 µM and > 10 µM (inactive).
Taken in the same sequence, the figures for `CCC(OC(=O)C(NC(=O)c1ccccc1)c1ccccc1)C(=O)Nc1cc(C)on1` (stereo not drawn) were more than 10 µM and > 10 µM (inactive).
In the case of `CCCOc1ccccc1N/C(=N/c1nc(C)cc(C)n1)NC(=O)COc1ccc(OC)cc1`, the figures for the IC50 in test [1] and in test [2] were more than 10 µM and > 10 µM (inactive), respectively.
Consider `CCc1cc2c(=O)c(Oc3ccccc3F)c(C)oc2c(CN(C)C)c1O`, for which the results for the IC50 in test [1] and in test [2] were more than 10 µM and > 10 µM (inactive), respectively.
Taken in the same sequence, the figures for `O=C(NCCc1ccccc1)C1CCN(S(=O)(=O)N2CCCC2)CC1` were more than 10 µM and > 10 µM (inactive).

By IC50 is commonly meant the concentration that gives 50% inhibition.
